US20130011392A1, “METHOD FOR ASSESSING THE ABILITY OF A PATIENT TO RESPOND TO OR BE SAFELY TREATED BY A NUCLEOSIDE ANALOG BASED-CHEMOTHERAPY” (Assistance Publique Hopitaux De Marseille, priority 2009, published 2013)
Like-named read-outs stand apart in the source and are kept apart here.

Key:
[1] = Animal pharmacokinetics of gemcitabine; format: in vivo, swiss mice; conditions: for clearance: male, Swiss, mouse, plasma, intraperitoneal; for Gemcitabine exposure AUC0-60: gemcitabine 100 mg/kg intraperitoneally; for Increase in gemcitabine exposure in animals with inhibited CDA: inhibited CDA (THU) vs normal CDA
Description: (§1) Parent-drug and difluorodeoxyuridine (dFdU) metabolite concentrations in plasma were assayed by UV-HPLC, as described in the literature (10). Elimination rate of gemcitabine was evaluated through a compartmental analysis and a stochastic model, using a home-built algorithm (11). Mean metabolization ratio for gemcitabine was calculated as follows: dFdU (μg/ml)/gemcitabine (μg/ml)×100. Carcass weights were monitored. Drug-induced leucopenia was the marker for gemcitabine-related toxicity. Leucocytes count was performed on day-0, then day-2, day-5 and day-8 post injection using Flow Cytometry analysis.

leucocytes = assay: Animal haematological toxicity monitoring (leucocytes count); format: in vivo, swiss mice; conditions: for Mean leucocytes count: day 5 after gemcitabine 100 mg/kg
Description: as §1

adult cancer patients = assay: Treatment-related toxicities in adult cancer patients (NCI-CTC); format: in vivo, human
Description: A total of 150 cancer patients (130 adults—Table 1 and 20 children—Table 2) hospitalized at La Timone University Hospital of Marseille, France, from January 2007 to December 2008, were enrolled in this retrospective, observational study. Written informed consent and local ethic committee approval were obtained prior to performing CDA testing. Patients were divided into 3 subsets: […] These patients were mostly treated for pancreatic (n=40 patients) or gynaecological (n=7 patients) cancers. Other tumour types included liver, lung, vesical, or other localizations. In patients with digestive cancers, gemcitabine was administered as a fixed-dose rate infusion, whereas other patients received a standard rapid infusion. […] Remaining patients were given various drug combinations including capecitabine, fluorouracil (5-FU), herceptin, navelbine, sorafenib, axatinib, and erlotinib. Gemcitabine was given either as a rapid infusion or at fixed-dose rate infusion, depending on tumor location, as described previously. Twenty patients were treated for vesical-urothelial cancers. Other tumour types were pancreatic (n=12 patients), breast (n=12 patients), gynaecological (n=12 patients), and other, including lung, head and neck, liver, and other localisations. Toxicities were graded following the standard National Cancer Institute-Common Toxicity Criteria guidelines. Toxicities of grade ≧3 were regarded as “severe”.

[2] = system: paediatric cancer patients; assay: Treatment-related toxicities in children; format: in vivo, human
Description: Subset 3: 20 patients (12 men/8 women; mean and SD age, 12±7 years) from the Pediatric Oncology Unit of La Timone University Hospital that had been previously treated with gemcitabine-based protocols had their CDA status phenotyped as well (Table 2). Most of these young patients were heavily pre-treated, and gemcitabine was mostly given as part of a Gemox protocol (n=14 patients), or associated with paclitaxel (n=3 patients) or with various other anticancer drugs (e.g.
carboplatine, liposomal doxorubicin) or dexamethasone. In children, mean gemcitabine dose was 1028±190 mg/m^2 (minimum, 600 mg/m^2 —maximum, 1400 mg/m^2). Tumour types were extremely heterogeneous and included osteosarcoma, medulloblastoma, Ewing's sarcoma, and Hodgkin's syndrome.
Toxicities were graded following the standard National Cancer Institute-Common Toxicity Criteria guidelines. Toxicities of grade ≧3 were regarded as “severe”. A toxic event was considered “early” when occurring […] the 1st or the 2nd day of the gemcitabine course, and was considered “late” when occurring after those days.

[3] = system: pancreatic cancers and other digestive localizations; assay: Treatment efficacy in digestive cancer patients by CT imaging / CA19-9 at 3 months; format: in vivo, human; conditions: gemcitabine alone or combined
Description: A total of 40 adult patients (21 men/19 women; 61±11 years old) with mostly pancreatic cancers (n=36 patients) and other digestive localizations (n=4 patients) were included in this retrospective study. All patients had been treated with gemcitabine alone (n=23 patients), associated with oxaliplatin (n=7 patients), erlotinib (n=2 patients), capecitabine (n=1 patient) or other drugs, including molecules used in target therapies (n=7 patients). Mean gemcitabine dose was 980 mg/m^2 (minimum: 500 mg/m^2, maximum: 1250 mg/m^2). CDA activity was measured spectrophotometrically from serum samples. Search for three genetic mutations (79A>C, 435T>C and 208G>A) was additionally performed. The cut-off associated with CDA extensiveness (extensive CDA activity) was set at 6 U/mg (e.g., >25% of the mean value of the population). Treatment efficacy was evaluated 3 month after beginning of the chemotherapy by CT imaging, with or without additional monitoring of the CA19-9 tumor marker.

patients = conditions: cited from earlier work
[4] = extensive subset (CDA>6 U/mg, n=8)

Compound: Nc1ccn([C@@H]2O[C@H](CO)[C@@H](O)C2(F)F)c(=O)n1 [gemcitabine, 2′-deoxy-2′,2′-difluorocytidine]
- clearance [1]: 0.195 L/h/kg
- clearance ([1]; 100 mg/kg, mice, normal CDA): 0.756 L/h/kg
- Decrease of gemcitabine clearance ([1]; mice with altered CDA function (THU) vs normal): 74%
- Gemcitabine exposure AUC0-60 ([1]; mice, inhibited CDA (THU pre-treatment)): 142 µg/mL/min
- Gemcitabine exposure AUC0-60 ([1]; mice, normal CDA): 54 µg/mL/min
- Increase in gemcitabine exposure in animals with inhibited CDA ([1]; mice): ~3 fold
- Increase in gemcitabine exposure in animals with inhibited CDA ([1]; mice, listed as Gemcitabine): 2.6 fold
- Outcome by day 8 (leucocytes; CDA-deficient mice (THU)): all animals were dead
- Decrease of leucocytes count (leucocytes; day 5, CDA-deficient mice (THU)): 65%
- Decrease of leucocytes count as compared with untreated animals (leucocytes; day 5, mice with normal CDA activity): 23%
- Mean leucocytes count (leucocytes; CDA-deficient mice (THU)): 1.5 G/L
- Mean leucocytes count (leucocytes; mice with normal CDA activity): 3.2 G/L
- Outcome by day 8 (leucocytes; mice with normal CDA activity): all animals spontaneously recovered from their toxicities
- Patients with severe side-effects (adult cancer patients; 66 extra-patients, gemcitabine in combination with another anticancer drug): 14%
- Patients with early severe toxicities (adult cancer patients; 130 adult patients, gemcitabine-containing protocol, after first or second administration): 12%
- Patients with early severe toxicities (adult cancer patients; Subset 1, gemcitabine alone, n=64): 11%
- Anemia grade 3/4, Early (adult cancer patients; Subset 1, monotherapy, n=64): 1 (1.6%) n (%)
- Anemia grade 3/4, Late (adult cancer patients; Subset 1, monotherapy, n=64): 1 (1.6%) n (%)
- Asthenia grade 3/4, Early (adult cancer patients; Subset 1, monotherapy, n=64): 1 (1.6%) n (%)
- Asthenia grade 3/4, Late (adult cancer patients; Subset 1, monotherapy, n=64): 1 (1.6%) n (%)
- Diarrhea grade 3/4, Early (adult cancer patients; Subset 1, monotherapy, n=64): 0 (0%) n (%)
- Diarrhea grade 3/4, Late (adult cancer patients; Subset 1, monotherapy, n=64): 1 (1.6%) n (%)
- Leucopenia grade 3/4, Early (adult cancer patients; Subset 1, monotherapy, n=64): 7 (11%) n (%)
- Leucopenia grade 3/4, Late (adult cancer patients; Subset 1, monotherapy, n=64): 10 (16%) n (%)
- Neutropenia grade 3/4, Early (adult cancer patients; Subset 1, monotherapy, n=64): 6 (9.6%) n (%)
- Neutropenia grade 3/4, Late (adult cancer patients; Subset 1, monotherapy, n=64): 8 (12.8%) n (%)
- Sepsis grade 3/4, Early (adult cancer patients; Subset 1, monotherapy, n=64): 3 (4.8%) n (%)
- Sepsis grade 3/4, Late (adult cancer patients; Subset 1, monotherapy, n=64): 0 (0%) n (%)
- Thrombopenia grade 3/4, Early (adult cancer patients; Subset 1, monotherapy, n=64): 2 (3.2%) n (%)
- Thrombopenia grade 3/4, Late (adult cancer patients; Subset 1, monotherapy, n=64): 2 (3.2%) n (%)
- Late/cumulative grade-3 anemia ([2]; Subset 3, 20 children): 20%
- Late/cumulative grade-3 neutropenia ([2]; Subset 3, 20 children): 20%
- Late/cumulative grade-3 thrombopenia ([2]; Subset 3, 20 children): 10%
- Early severe toxicities ([2]; Subset 3, 20 children, gemcitabine-based protocols): No early severe toxicities were observed
- Tolerance ([2]; children): well tolerated
- Non-responders with progressive disease [3, 4]: 75%
- Patients with controlled disease [3, 4]: 25%
- Patients with controlled disease ([3]; non-extensive subset (CDA<6 U/mg, n=32)): 84.5%
- Severe toxicities reported (patients; gemcitabine given as a combination (polychemotherapy)): 15-30%
- Severe toxicities reported (patients; gemcitabine monochemotherapy): 5-10%
